Columns and labels:
KRAS WT = molecular target: T1, KRAS WT (Homo sapiens, UniProt P01116); assay: HTRF assay, wildtype KRAS interaction with SOS1; assay type: biochemical; settings: bins <500 nM / 500 nM to 1000 nM, read-out: Inhibition of KRAS WT (IC50)
T1 construct: made in house; host or cells: E. coli, e.g. BL21 (DE3)

KRAS G12V = molecular target: T2, KRAS G12V (Homo sapiens, UniProt P01116, G12V); assay: HTRF assay, KRAS G12V interaction with SOS1; assay type: biochemical; settings: bins <500 nM / 500 nM to 1000 nM, read-out: Inhibition of KRAS G12V (IC50)
T2 construct: made in house; host or cells: E. coli, e.g. BL21 (DE3)
T2 sequence (P01116 1-188 isoform P01116-2 G12V): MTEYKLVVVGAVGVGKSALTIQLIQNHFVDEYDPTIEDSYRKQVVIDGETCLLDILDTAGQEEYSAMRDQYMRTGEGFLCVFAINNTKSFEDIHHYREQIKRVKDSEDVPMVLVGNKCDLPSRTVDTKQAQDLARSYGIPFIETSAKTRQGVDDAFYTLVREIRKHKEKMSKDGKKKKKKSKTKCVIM

KRAS G12D = molecular target: T3, KRAS G12D (Homo sapiens, UniProt P01116, G12D); assay: HTRF assay, KRAS G12D interaction with SOS1; assay type: biochemical; settings: bins <500 nM / 500 nM to 1000 nM, read-out: Inhibition of KRAS G12D (IC50)
T3 construct: made in house; host or cells: E. coli, e.g. BL21 (DE3)
T3 sequence (P01116 1-188 isoform P01116-2 G12D): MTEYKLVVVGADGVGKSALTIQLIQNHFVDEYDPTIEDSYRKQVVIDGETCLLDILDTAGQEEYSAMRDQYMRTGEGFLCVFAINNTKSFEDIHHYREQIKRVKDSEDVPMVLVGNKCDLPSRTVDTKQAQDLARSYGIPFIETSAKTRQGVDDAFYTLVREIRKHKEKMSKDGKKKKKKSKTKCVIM

KRAS G12S = molecular target: T4, KRAS G12S (Homo sapiens, UniProt P01116, G12S); assay: HTRF assay, KRAS G12S interaction with SOS1; assay type: biochemical; settings: bins <500 nM / 500 nM to 1000 nM, read-out: Inhibition of KRAS G12S (IC50)
T4 construct: made in house; host or cells: E. coli, e.g. BL21 (DE3)
T4 sequence (P01116 1-188 isoform P01116-2 G12S): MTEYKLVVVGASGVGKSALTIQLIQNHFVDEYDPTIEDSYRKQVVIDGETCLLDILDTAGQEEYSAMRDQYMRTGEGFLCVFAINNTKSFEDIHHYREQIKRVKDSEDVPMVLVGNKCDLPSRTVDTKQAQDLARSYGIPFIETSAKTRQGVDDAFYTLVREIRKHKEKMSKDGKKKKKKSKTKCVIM

MiaPaca2 cells = assay: Ras cellular assay, growth of cells with K-Ras G12C mutation; assay type: cell-based; settings: Homo sapiens, MIA PaCa-2; cell proliferation assay; bins ≤500 nM / >500 nM; read-out: Inhibition of MiaPaca2 Cells (IC50)
Description: For example, this assay can be also used to assess selective growth inhibition of a mutant Ras protein relative to a wildtype or different mutant Ras protein.
MIA PaCa-2 (ATCC CRL-1420) and NCI-H1792 (ATCC CRL-5895) cell lines comprise a G12C mutation and can be used to assess Ras cellular signaling in vitro, e.g., in response to an inhibitor compound of the present disclosure. […] MIA PaCa-2 culture medium is prepared with DMEM/Ham's F12 (e.g., with stable glutamine, 10% FCS, and 2.5% horse serum. NCI-H1792 culture medium is prepared with RPMI 1640 (e.g., with stable glutamine) and 10% FCS.
On a first day (e.g., Day 1), Softagar (Select Agar, Invitrogen, 3% in ddH2O autoclaved) is boiled and tempered at 48° C. Appropriate culture medium (i.e., medium) is tempered to 37° C. Agar (3%) is diluted 1:5 in medium (=0.6%) and plated into 96 well plates (Corning, #3904), then incubated at room temperature for agar solidification. A 3% agar is diluted to 0.25% in medium (1:12 dilution) and tempered at 42° C. Cells are trypsinized, counted, and tempered at 37° C. The cells (e.g., MIA PaCa-2 at about 125-150 cells, NCI-H1792 at about 1000 cells) are resuspended in […] 0.25% Agar and plated, followed by incubation at room temperature for agar solidification. The wells are overlaid with […] of the medium. Sister wells in a separate plate are plated for time zero determination. All plates are incubated overnight at 37° C. and 5% CO2.
On a second day (e.g., Day 2), time zero values are measured. A […] volume of Cell Titer 96 Aqueous Solution (Promega) is added to each well and incubated in the dark at 37° C. and 5% CO2. Absorption can be measured at 490 nm and reference wavelength 660 nm. DMSO-prediluted test compounds are added to wells of interest, e.g., with HP Dispenser, to one or more desired concentrations (e.g., a final DMSO concentration of 0.3%).
On a tenth day (e.g., Day 10), absorption by wells treated with the test compounds and control wells are measured with, for example, Cell Titer 96 AQueous and analyzed in comparison to the time zero measurements. The IC50 values are determined using the four parameter fit. The resulting IC50 value is a measurement of the ability of the test compound to reduce cell growth of Ras-driven cells (e.g., tumor cell lines) in vitro and/or in vivo.

T1 sequence (P01116 1-188 isoform P01116-2): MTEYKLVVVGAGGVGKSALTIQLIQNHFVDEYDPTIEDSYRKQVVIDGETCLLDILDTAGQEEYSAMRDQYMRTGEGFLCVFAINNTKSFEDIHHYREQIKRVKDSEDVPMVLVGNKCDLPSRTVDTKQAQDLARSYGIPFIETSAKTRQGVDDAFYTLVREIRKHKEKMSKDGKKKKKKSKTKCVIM

Row | Structure (SMILES) | IC50 (KRAS WT) [nM] | IC50 (KRAS G12V) [nM] | IC50 (KRAS G12D) [nM] | IC50 (KRAS G12S) [nM] | IC50 (MiaPaca2 cells) [nM]
1 | CCN(c1nc(OC[C@@]23CCCN2C[C@H](F)C3)nc2c(F)c(-c3ccc(F)c4sc(N)c(C#N)c34)c(Cl)cc12)[C@@H]1CCN(C(=O)n2ccnc2)[C@@H]1C [Compound 106, 4-(4-(((2R,3R)-1-(1H-imidazole-1-carbonyl)-2-methylpyrrolidin-3-yl)(ethyl)amino)-6-chloro-8-fluoro-2-(((2R,7aS)-2-fluorotetrahydro-1H-pyrrolizin-7a(5H)-yl)methoxy)quinazolin-7-yl)-2-amino-7-fluorobenzo[b]thiophene-3-carbonitrile] | < 500 | < 500 | < 500 | < 500 | ≤ 500
2 | CCN(c1nc(OC[C@@]23CCCN2C[C@H](F)C3)nc2c(F)c(-c3ccc(F)c4sc(N)c(C#N)c34)c(Cl)cc12)[C@@H]1CCN(C(=O)n2cc(C)nc2C#N)[C@@H]1C [Compound 104, 1-((2R,3R)-3-((7-(2-amino-3-cyano-7-fluorobenzo[b]thiophen-4-yl)-6-chloro-8-fluoro-2-(((2R,7aS)-2-fluorotetrahydro-1H-pyrrolizin-7a(5H)-yl)methoxy)quinazolin-4-yl)(ethyl)amino)-2-methylpyrrolidine-1-carbonyl)-4-methyl-1H-imidazole-2-carbonitrile] | < 500 | < 500 | < 500 | < 500 | ≤ 500
3 | Cc1ncn(C(=O)N2CC[C@@H](N(C)c3nc(OC[C@@]45CCCN4C[C@H](F)C5)nc4c(F)c(-c5ccc(F)c6sc(N)c(C#N)c56)c(Cl)cc34)[C@H]2C)c1C [Compound 180, 2-amino-4-(6-chloro-4-(((2R,3R)-1-(4,5-dimethyl-1H-imidazole-1-carbonyl)-2-methylpyrrolidin-3-yl)(methyl)amino)-8-fluoro-2-(((2R,7aS)-2-fluorotetrahydro-1H-pyrrolizin-7a(5H)-yl)methoxy)quinazolin-7-yl)-7-fluorobenzo[b]thiophene-3-carbonitrile] | < 500 | < 500 | < 500 | < 500 | ≤ 500
4 | C[C@@H]1[C@H](N(C)c2nc(OC[C@@]34CCCN3C[C@H](F)C4)nc3c(F)c(-c4ccc(F)c5sc(N)c(C#N)c45)c(Cl)cc23)CCN1C(=O)n1ccnc1C1CC1 [Compound 201, 2-amino-4-(6-chloro-4-(((2R,3R)-1-(2-cyclopropyl-1H-imidazole-1-carbonyl)-2-methylpyrrolidin-3-yl)(methyl)amino)-8-fluoro-2-(((2R,7aS)-2-fluorotetrahydro-1H-pyrrolizin-7a(5H)-yl)methoxy)quinazolin-7-yl)-7-fluorobenzo[b]thiophene-3-carbonitrile] | < 500 | < 500 | < 500 | < 500 | ≤ 500
5 | Cc1ncn(C(=O)N2C[C@]3(CCCCN(c4nc(OC[C@@]56CCCN5C[C@H](F)C6)nc5c(F)c(-c6ccc(F)c7sc(N)c(C#N)c67)c(Cl)cc45)C3)[C@H]2C)c1C [Compound 131, 2-amino-4-(6-chloro-4-((1R,4R)-2-(4,5-dimethyl-1H-imidazole-1-carbonyl)-1-methyl-2,6-diazaspiro[3.6]decan-6-yl)-8-fluoro-2-(((2R,7aS)-2-fluorotetrahydro-1H-pyrrolizin-7a(5H)-yl)methoxy)quinazolin-7-yl)-7-fluorobenzo[b]thiophene-3-carbonitrile] | < 500 | < 500 | < 500 | < 500 | ≤ 500

Other lines, results leading:

Row | IC50 (KRAS WT) [nM] | IC50 (KRAS G12V) [nM] | IC50 (KRAS G12D) [nM] | IC50 (KRAS G12S) [nM] | IC50 (MiaPaca2 cells) [nM] | Structure (SMILES)
6 | < 500 | < 500 | < 500 | < 500 | ≤ 500 | CCN(c1nc(OC[C@@]23CCCN2C[C@H](F)C3)nc2c(F)c(-c3ccc(F)c4sc(N)c(C#N)c34)c(C(F)(F)F)cc12)[C@@H]1CCN(C(=O)n2ccc(Cl)n2)[C@@H]1C (atropisomer, axis not shown; (aS)) [Compound 193, (S)-2-amino-4-(4-(((2R,3R)-1-(3-chloro-1H-pyrazole-1-carbonyl)-2-methylpyrrolidin-3-yl)(ethyl)amino)-8-fluoro-2-(((2R,7aS)-2-fluorotetrahydro-1H-pyrrolizin-7a(5H)-yl)methoxy)-6-(trifluoromethyl)quinazolin-7-yl)-7-fluorobenzo[b]thiophene-3-carbonitrile]
7 | < 500 | < 500 | < 500 | < 500 | ≤ 500 | Cc1nc(C#N)cn1C(=O)N1CC[C@@H](N(C)c2nc(OC[C@@]34CCCN3C[C@H](F)C4)nc3c(F)c(-c4ccc(F)c5sc(N)c(C#N)c45)c(Cl)cc23)[C@H]1C [Compound 158, 1-((2R,3R)-3-((7-(2-amino-3-cyano-7-fluorobenzo[b]thiophen-4-yl)-6-chloro-8-fluoro-2-(((2R,7aS)-2-fluorotetrahydro-1H-pyrrolizin-7a(5H)-yl)methoxy)quinazolin-4-yl)(methyl)amino)-2-methylpyrrolidine-1-carbonyl)-2-methyl-1H-imidazole-4-carbonitrile]
8 | < 500 | < 500 | < 500 | < 500 | ≤ 500 | CCN(c1nc(OC[C@@]23CCCN2C[C@H](F)C3)nc2c(F)c(-c3ccc(F)c4sc(N)c(C#N)c34)c(C(F)(F)F)cc12)[C@@H]1CCN(C(=O)n2ccnc2C)[C@@H]1C [Compound 148, 2-amino-4-(4-(ethyl((2R,3R)-2-methyl-1-(2-methyl-1H-imidazole-1-carbonyl)pyrrolidin-3-yl)amino)-8-fluoro-2-(((2R,7aS)-2-fluorotetrahydro-1H-pyrrolizin-7a(5H)-yl)methoxy)-6-(trifluoromethyl)quinazolin-7-yl)-7-fluorobenzo[b]thiophene-3-carbonitrile]
9 | < 500 | < 500 | < 500 | < 500 | ≤ 500 | CCN(c1nc(OC[C@@]23CCCN2C[C@H](F)C3)nc2c(F)c(-c3ccc(F)c4sc(N)c(C#N)c34)c(C(F)(F)F)cc12)[C@@H]1CCN(C(=O)n2cc(C)nc2C)[C@@H]1C (atropisomer, axis not shown; (aS)) [Compound 114, (S)-2-amino-4-(4-(((2R,3R)-1-(2,4-dimethyl-1H-imidazole-1-carbonyl)-2-methylpyrrolidin-3-yl)(ethyl)amino)-8-fluoro-2-(((2R,7aS)-2-fluorotetrahydro-1H-pyrrolizin-7a(5H)-yl)methoxy)-6-(trifluoromethyl)quinazolin-7-yl)-7-fluorobenzo[b]thiophene-3-carbonitrile]
10 | < 500 | < 500 | < 500 | < 500 | ≤ 500 | CC(C)[C@@H]1[C@H](N(C)c2nc(OC[C@@]34CCCN3C[C@H](F)C4)nc3c(F)c(-c4ccc(F)c5sc(N)c(C#N)c45)c(Cl)cc23)CCN1C(=O)n1ccnc1 [Compound 169, 4-(4-(((2R,3R)-1-(1H-imidazole-1-carbonyl)-2-isopropylpyrrolidin-3-yl)(methyl)amino)-6-chloro-8-fluoro-2-(((2R,7aS)-2-fluorotetrahydro-1H-pyrrolizin-7a(5H)-yl)methoxy)quinazolin-7-yl)-2-amino-7-fluorobenzo[b]thiophene-3-carbonitrile]
11 | < 500 | < 500 | < 500 | < 500 | ≤ 500 | Cc1cn(C(=O)N2CC3(CCCCN(c4nc(OC[C@@]56CCCN5C[C@H](F)C6)nc5c(F)c(-c6ccc(F)c7sc(N)c(C#N)c67)c(Cl)cc45)C3)C2)c(C)n1 [Compound 138, 2-amino-4-(6-chloro-4-(2-(2,4-dimethyl-1H-imidazole-1-carbonyl)-2,6-diazaspiro[3.6]decan-6-yl)-8-fluoro-2-(((2R,7aS)-2-fluorotetrahydro-1H-pyrrolizin-7a(5H)-yl)methoxy)quinazolin-7-yl)-7-fluorobenzo[b]thiophene-3-carbonitrile]
